Assay: Human HepG2 cell viability assay in 384 well format
Assay type: toxicity, cell-based
Set-up: dose 125 nL, time 70.5 hour; cytotoxicity at 70.5 h: concentration not given beside the values
Conditions: HepG2 cells, read-out: Inhibition

Row | SMILES | cytotoxicity at 70.5 h [%]
1 | CCN1C[C@@H]2CN(S(=O)(=O)c3cccs3)C[C@@H]2C1=O | -8.27
2 | Cn1cc(CN2CCc3c(c(COCC#N)nn3C)C2)cn1 | -13.6
3 | CCc1ccc(CN2CCC3(CC2)C(=O)N(C)CCN3CC)cc1 | -10.4
4 | CCN1CC[C@@]2(C(=O)N(C)C)CCN(C(=O)NC(C)C)CC[C@@H]12 | -4.36
5 | CN(C)CCN1CC[C@H]2[C@@H]1CCN2Cc1ccc2c(c1)OCO2 | -4.2
6 | O=C(C1CCCCC1)N1C[C@@H]2CCNC[C@@H]21 | -4.1
7 | CN1CCCC2(C1)CN(C(=O)C1CCCCC1)CCO2 (stereo unspecified) | -4.05
8 | CCN1CCc2c(c(COC)nn2C)C1 | -10.5
9 | CN(C)C(=O)N1Cc2ccccc2C2(CCN(C3CCOCC3)CC2)C1 | -10.7
10 | C[C@@H]1C[C@H]2CN(C(=O)C3=CCCCC3)C[C@H]2O1 | -10.1
11 | CC(C)CNC(=O)N1C[C@H]2CCN[C@H]2C1 | -8.65
12 | O=C(c1ccc(F)c(F)c1)N1C[C@H]2CNC[C@H]2C1 | -11.5
13 | Cc1ccc(CN2CCC3(CCN(S(=O)(=O)c4ccccc4)C3)C2)o1 (stereo unspecified) | 27.1
14 | O=C(C1CCC1)N1C[C@H]2CNC[C@H]2C1 | 13.3
15 | O=C(c1ccoc1)N1CC[C@H]2[C@H]1CCN2CC1CC1 | -3.04
16 | c1cc(CN2CCC3(CC2)COC(COCC2CC2)C3)co1 (stereo unspecified) | -20.3
17 | CC(C)NC(=O)N1CCCC2(CCN(c3ccsc3)C2=O)C1 (stereo unspecified) | -12.5
18 | O=C(c1ccoc1)N1CCOCC2(CCN(Cc3cccs3)C2)C1 (stereo unspecified) | -12.4
19 | O=C(NCc1ccco1)[C@@H]1C[C@H]2OCC[C@H]2N(c2ncc(F)cn2)C1 | -14.6
20 | O=C(c1ccco1)N1CCOCC2(C1)CN(c1ccccn1)C(=O)CO2 (stereo unspecified) | -4.96
21 | CCOCC1CN(C(=O)c2ccoc2C)Cc2cnn(C)c21 (stereo unspecified) | 28.1
22 | CCOC(=O)CN1C[C@@H]2OCCN(c3ncc(F)cn3)[C@@H]2C1 | 21.2
23 | CN(C)Cc1cn2c(n1)CN(C1CCOC1)CC2 (stereo unspecified) | -1.23
24 | CN(Cc1cccnc1)Cc1cn2c(n1)CN(C1CCOCC1)CC2 | -4.27
25 | COC(=O)CCC(=O)N1CCC2(CN(Cc3ccc(Cl)cc3)C2)C1 | -6.67
26 | Cc1ccoc1C(=O)N1CCO[C@H]2[C@H](OCc3ccncc3)CC[C@@H]21 | -0.105

Row | SMILES | cytotoxicity at 70.5 h [%]
27 | Cn1cc(CN2C[C@@H]3COC[C@]3(C(=O)NCc3cccs3)C2)cn1 | -6.51
28 | CN(C)C(=O)[C@@H]1C[C@@H]2CCN(C3CCOCC3)C[C@@H]2O1 | 12.2
29 | CC(C)Oc1ncnc2c1CCN(c1cc(C(F)(F)F)ncn1)CC2 | 4.68
30 | CC(C)Nc1ncnc2c1CCN(c1cc(C(F)(F)F)ncn1)CC2 | 3.48
31 | CCOc1ncnc2c1CCN(c1cc(C(F)(F)F)ncn1)CC2 | 3.85
32 | Cn1cc(CN2CCCn3cnc(COCc4ccco4)c3C2)cn1 | 3.06
33 | CN(C)C(=O)[C@H]1C[C@@H]2CN(c3ncccn3)C[C@H]1O2 | -4.11
34 | Cc1noc([C@]23COC[C@H]2CN(C(=O)C2CCOCC2)C3)n1 | -4.92
35 | Cc1noc([C@@]23CCO[C@@H]2CCN(C(=O)c2cc(C)[nH]c2C)C3)n1 | -2.6
36 | CCC1=N[C@@]2(CC[C@@H]3CN(C(=O)NCC(C)C)C[C@@H]32)C(=O)N1CCOC | -2.9
37 | O=C1NC(c2ccccc2)=N[C@@]12CC[C@@H]1CN(Cc3nccs3)C[C@@H]12 | -4.6
38 | O=C1NC(c2ccccc2)=N[C@@]12CC[C@@H]1CN(Cc3cccnc3)C[C@@H]12 | -0.723
39 | Cc1noc([C@@]23CCO[C@@H]2CCN(C(=O)C2CCOCC2)C3)n1 | 4.56
40 | CC(=O)N1CC[C@H]2OCC[C@@]2(C(=O)NCc2ccco2)C1 | 1.98
41 | CS(=O)(=O)NC[C@@H]1OC[C@H]2CN(C(=O)c3ccc[nH]3)CC[C@H]21 | 3.6
42 | Cn1cc(N2CCC3(CCN(S(=O)(=O)C4CC4)C3)C2=O)cn1 (stereo unspecified) | 4.38
43 | O=C1CC2(CCN(S(=O)(=O)C3CC3)C2)CN1c1cncnc1 (stereo unspecified) | 4.54
44 | CC(C)C(=O)N1C[C@H]2CCCN[C@H]2C1 | -5.18
45 | CC(C)(C)CC(=O)N1C[C@@H]2C[C@H]1CN2 | -8.19
46 | O=C(C1CCCCC1)N1C[C@H]2CNC[C@H]2C1 | -11
47 | Cc1ccc(NCc2cncc3c2CCN(C(=O)C2CC=CC2)C3)nn1 | -1.58
48 | CCN1CC[C@@]2(C(=O)N3CCOCC3)CCN(C(=O)NC)CC[C@@H]12 | -10.8
49 | CN(C)C(=O)N1CCc2onc(C(=O)Nc3cccnc3)c2C1 | -19.2
50 | CCc1ccc(CN2CCC3(CC2)C(=O)N(C)CCN3CC2CC2)cc1 | -13.9
51 | CS(=O)(=O)N1CC[C@@H]2[C@@H]1CCN2Cc1ccc2c(c1)OCO2 | -0.795
